Measurements reported in publication PMC12692955, “Acetylbinankadsurin A Decreases Macrophage Glycolysis and Pro-Inflammatory Phenotype Polarization via Inhibiting HIF-1α to Alleviate Hepatic Fibrosis in Mice” (Molecules, 2025).

Biological target: T1, HIF-1α (Homo sapiens, UniProt Q16665)
T1 construct: gene HIF1A; recombinant protein HIF-1α (MCE #HY-P74888)
Assay: SPR (Biacore T200, HIF-1α amine-coupled to CM5 chip)
Assay type: binding

T1 sequence (Q16665 whole entry): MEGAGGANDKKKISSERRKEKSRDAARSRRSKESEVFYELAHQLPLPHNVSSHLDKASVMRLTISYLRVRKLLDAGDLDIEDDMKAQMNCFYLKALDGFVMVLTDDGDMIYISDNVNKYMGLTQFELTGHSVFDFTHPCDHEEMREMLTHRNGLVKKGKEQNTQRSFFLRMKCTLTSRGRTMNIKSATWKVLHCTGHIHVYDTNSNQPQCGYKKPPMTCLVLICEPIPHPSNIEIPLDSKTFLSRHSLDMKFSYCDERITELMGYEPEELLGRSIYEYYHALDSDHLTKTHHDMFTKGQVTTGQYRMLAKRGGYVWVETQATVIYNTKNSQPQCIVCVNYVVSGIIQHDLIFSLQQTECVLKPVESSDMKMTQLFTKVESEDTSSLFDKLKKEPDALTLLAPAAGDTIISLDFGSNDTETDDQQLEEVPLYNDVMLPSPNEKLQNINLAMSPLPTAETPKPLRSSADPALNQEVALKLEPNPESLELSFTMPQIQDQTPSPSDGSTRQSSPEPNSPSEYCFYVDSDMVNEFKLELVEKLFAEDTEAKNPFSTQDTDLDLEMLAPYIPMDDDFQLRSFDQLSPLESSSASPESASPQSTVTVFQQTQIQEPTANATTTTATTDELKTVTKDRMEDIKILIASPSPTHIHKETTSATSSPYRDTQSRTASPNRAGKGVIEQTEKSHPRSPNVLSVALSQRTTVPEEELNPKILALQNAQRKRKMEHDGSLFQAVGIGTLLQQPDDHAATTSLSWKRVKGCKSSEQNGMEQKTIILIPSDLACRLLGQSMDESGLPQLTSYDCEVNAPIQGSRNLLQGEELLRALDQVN

- Kd: 13 µM
SMILES: COc1cc2c(c(O)c1OC)-c1c(cc3c(c1OC)OCO3)[C@H](OC(C)=O)[C@H](C)[C@H](C)C2 [ACBA, Acetylbinankadsurin A]
